# According to ChEMBL document CHEMBL3853264 (Medchemcomm, 2016):
# Tests used:
# [1] = Drug level in human liver microsomes treated with 4-(3-chloro-4-(hydroxymethyl)phenoxy)-3-cyano-N-(5-fluoropyridin-2-yl)benzenesulfonamide; assay type: ADME
# [2] = Drug level in human hepatocytes treated with 4-(3-chloro-4-(hydroxymethyl)phenoxy)-3-cyano-N-(5-fluoropyridin-2-yl)benzenesulfonamide; assay type: ADME, cell-based, Hepatocyte
# [3] = Half life in dog at 0.1 mg/kg, iv and 3 mg/kg, po; assay type: ADME, organism-based, Canis lupus familiaris; settings: in vivo
# [4] = Unbound clearance in dog at 0.1 mg/kg, iv and 3 mg/kg, po; assay type: ADME, organism-based, Canis lupus familiaris; settings: in vivo
# [5] = Oral bioavailability in dog at 3 mg/kg; assay type: ADME, organism-based, Canis lupus familiaris; settings: in vivo
# [6] = organism: Homo sapiens; experiment: Reduction in serum ureate in human at >450 mg, bid; assay type: functional; design: scale not given: the % may be the effect or the level left
# [7] = Volume of distribution at steady state in rat at 1 mg/kg, iv and 3 mg/kg, po; assay type: ADME, organism-based; settings: in vivo, read-out: Vdss
# [8] = Plasma clearance in dog at 0.1 mg/kg, iv and 3 mg/kg, po; assay type: ADME, organism-based, Canis lupus familiaris
# [9] = Unbound average plasma concentration in human at >450 mg, bid; assay type: ADME
# [10] = Lipophilicity, log D of the compound; assay type: physicochemical; settings: octanol/water
# [11] = Oral bioavailability in rat at 3 mg/kg; assay type: ADME, organism-based; settings: in vivo
# [12] = Unbound clearance in rat at 1 mg/kg, iv and 3 mg/kg, po; assay type: ADME, organism-based; settings: in vivo
# [13] = Volume of distribution at steady state in dog at 0.1 mg/kg, iv and 3 mg/kg, po; assay type: ADME, organism-based, Canis lupus familiaris; settings: in vivo, read-out: Vdss
Drug metabolism [1],Drug metabolism [2],half-life [3],CL free [4],bioavailability [5],Vd [7],clearance [8],Cp(f) [9],logD [10],bioavailability [11],CL free [12],Vd [13],Compound,Activity [6]
Metabolite_Detected,Metabolite_Detected,–,–,–,–,–,–,–,–,–,–,N#Cc1cc(S(=O)(=O)Nc2ccc(F)cn2)ccc1Oc1ccc(C(=O)O)c(Cl)c1,–
–,–,1.4 h,641 mL/min/kg,35%,1.3 L/kg,4.8 mL/min/kg,60 nM,2.6,27%,447 mL/min/kg,0.31 L/kg,Nc1[nH]ncc1-c1cc(Cl)ccc1Oc1cc(F)c(S(=O)(=O)Nc2cscn2)cc1Cl [PF-05089771],50%
